Laboratory results: publication PMC9322123, “Design and Synthesis of New Pyrimidine-Quinolone Hybrids as Novel hLDHA Inhibitors” (Pharmaceuticals, 2022)
pIC50: −log10 of the molar value. “Also recorded” adds a separate entry of the source. Like-named read-outs stand apart in the source and are kept apart here.

Assays:
[1] = Solubility as observed on handling; format: physicochemical
[2] = molecular target: T1, hLDHA (Homo sapiens, UniProt P00338); assay: hLDHA enzymatic assay (kinetic fluorometric, pyruvate substrate, NADH co-factor); format: biochemical; conditions: for pIC50: hLDHA, 1 mM pyruvate, 151 µM β-NADH, compounds 0.048–100 µM, n = 3
T1 construct: purchased Abcam
Description: The inhibitory activity of the pyrimidine-quinolone hybrids 10, 15, 19, and 24–31(a–c) against the hLDHA enzyme was measured by a kinetic spectrofluorometric assay.
hLDHA activity was determined throughout a fluorometric method with pyruvate as substrate and NADH co-factor, as previously reported and modified as described here: in each well, the final volume was set to 200 µL, and the final concentrations were 100 mM potassium phosphate buffer, 0.041 units/mL hLDHA (95%, specific activity >300 units/mg and concentration of 0.5 mg/mL, Abcam, Cambridge, United Kingdom), 151 µM β-NADH, 1 mM pyruvate (saturated conditions), and DMSO solutions (2%, v/v) of pure compounds at concentrations in the range of 0.048–100 µM. The reaction was initiated by the addition of pyruvate, and the NADH concentration decrease was measured for 10 min in a TECAN Infinite 200 Pro M Plex fluorescence plate reader at 28 °C, with excitation at 340 nm and emission at 460 nm. The percentage of activity for each measure was calculated by comparison between the maximum slope of each compound concentration and the maximum slope when no inhibitor (DMSO only) was in the well (100% enzymatic activity). The compound 3-[[3[(cyclopropylamino)sulfonyl]-7-(2,4-dimethoxy-5-pyrimidinyl)-4-quinolinyl]amino]-5-(3,5-difluorophenoxy)benzoic acid (GSK 2837808 A, Tocris, Minneapolis, MN, USA) was used as a positive control.
The measurements were obtained thrice, and data were expressed as the mean ± SD of n = 3 replicates for IC50 values. As-obtained data were later plotted in GraphPad Prism version 5.00 for Windows (GraphPad Software, La Jolla, CA, USA). Nonlinear regression analysis was chosen for dose response curve, representing the logarithm of inhibitor concentration vs. normalized enzymatic activity in order to calculate IC50 values.

[3] = molecular target: T1, hLDHA; design: method as in PMID 25466195; conditions: W31, ligand of complex 4R68; cited from earlier work

| SMILES | pIC50 [2] | further results |
| --- | --- | --- |
| O=c1[nH]c2ccccc2cc1COc1ccccc1Oc1nccc(-c2ccc(Cl)cc2)n1 [Compound 19, 3-((2-((4-(4-Chlorophenyl)pyrimidin-2-yl)oxy)phenoxy)methyl)quinolin-2(1H)-one] | < 4.00 | – |
| O=c1[nH]c2ccccc2cc1CSc1ccccc1Nc1nccc(-c2ccc(Cl)cc2)n1 [Compound 24a, 3-(((2-((4-(4-Chlorophenyl)pyrimidin-2-yl)amino)phenyl)thio)methyl)quinolin-2(1H)-one] | 4.50 | – |
| O=c1[nH]c2ccc(Cl)cc2cc1CSc1ccccc1Nc1nccc(-c2ccc(Cl)cc2)n1 [Compound 24b, 6-Chloro-3-(((2-((4-(4-chlorophenyl)pyrimidin-2-yl)amino)phenyl)thio)meth-yl)quinolin-2(1H)-one] | 4.46 | – |
| COc1ccc2[nH]c(=O)c(CSc3ccccc3Nc3nccc(-c4ccc(Cl)cc4)n3)cc2c1 [Compound 24c, 3-(((2-((4-(4-Chlorophenyl)pyrimidin-2-yl)amino)phenyl)thio)methyl)-6-methoxyquinolin-2(1H)-one] | 4.10 | – |
| O=c1[nH]c2ccccc2cc1CSc1ccccc1Nc1nccc(-c2ccc3ccccc3c2)n1 [Compound 26a, 3-(((2-((4-(Naphthalen-2-yl)pyrimidin-2-yl)amino)phenyl)thio)methyl)quinolin-2(1H)-one] | 4.75 | – |
| O=c1[nH]c2ccc(Cl)cc2cc1CSc1ccccc1Nc1nccc(-c2ccc3ccccc3c2)n1 [Compound 26b, 6-Chloro-3-(((2-((4-(naphthalen-2-yl)pyrimidin-2-yl)amino)phenyl)thio)me-thyl)quinolin-2(1H)-one] | 4.69 | – |
| COc1ccc2[nH]c(=O)c(CSc3ccccc3Nc3nccc(-c4ccc5ccccc5c4)n3)cc2c1 [Compound 26c, 6-Methoxy-3-(((2-((4-(naphthalen-2-yl)pyrimidin-2-yl)amino)phenyl)thio)methyl)quinolin-2(1H)-one] | 4.56 | – |
| O=c1[nH]c2ccccc2cc1CSc1ccccc1Nc1nccc(-c2ccc3c(c2)OCO3)n1 [Compound 27a, 3-(((2-((4-(Benzo[d][1,3]dioxol-5-yl)pyrimidin-2-yl)amino)phenyl)thio)methyl)quinolin-2(1H)-one] | < 4.00 | – |
| O=c1[nH]c2ccc(Cl)cc2cc1CSc1ccccc1Nc1nccc(-c2ccc3c(c2)OCO3)n1 [Compound 27b, 3-(((2-((4-(Benzo[d][1,3]dioxol-5-yl)pyrimidin-2-yl)amino)phenyl)thio)methyl)-6-chloroquinolin-2(1H)-one] | 4.05 | – |
| COc1ccc2[nH]c(=O)c(CSc3ccccc3Nc3nccc(-c4ccc5c(c4)OCO5)n3)cc2c1 [Compound 27c, 3-(((2-((4-(Benzo[d][1,3]dioxol-5-yl)pyrimidin-2-yl)amino)phenyl)thio)methyl)-6-methoxyquinolin-2(1H)-one] | 4.22 | – |
| O=c1[nH]c2ccc(Cl)cc2cc1CSc1ccc(Nc2nccc(-c3ccc4c(c3)OCO4)n2)cc1 [Compound 31b, 3-(((4-((4-(Benzo[d][1,3]dioxol-5-yl)pyrimidin-2-yl)amino)phenyl)thio)methyl)-6-chloroquinolin-2(1H)-one] | 4.30 | – |
| COc1ccc2[nH]c(=O)c(CSc3ccc(Nc4nccc(-c5ccc6c(c5)OCO6)n4)cc3)cc2c1 [Compound 31c, 3-(((4-((4-(Benzo[d][1,3]dioxol-5-yl)pyrimidin-2-yl)amino)phenyl)thio)methyl)-6-methoxyquinolin-2(1H)-one] | < 4.00 | inhibitory activity against hLDHA (in words) [2]: inactive |
| O=c1[nH]c2ccccc2cc1CSc1cccc(Nc2nccc(-c3ccc4ccccc4c3)n2)c1 [Compound 35a, 3-(((3-((4-(Naphthalen-2-yl)pyrimidin-2-yl)amino)phenyl)thio)methyl)quinolin-2(1H)-one] | 4.71 | – |
| O=c1[nH]c2ccc(Cl)cc2cc1CSc1cccc(Nc2nccc(-c3ccc4ccccc4c3)n2)c1 [Compound 35b, 6-Chloro-3-(((3-((4-(naphthalen-2-yl)pyrimidin-2-yl)amino)phenyl)thio)me-thyl)quinolin-2(1H)-one] | 4.61 | – |
| COc1ccc2[nH]c(=O)c(CSc3cccc(Nc4nccc(-c5ccc6ccccc6c5)n4)c3)cc2c1 [Compound 35c, 6-Methoxy-3-(((3-((4-(naphthalen-2-yl)pyrimidin-2-yl)amino)phenyl)thio)methyl)quinolin-2(1H)-one] | 4.30 | – |
| C[C@H](OC(=O)Cc1ccc(Cl)c(SC2=C(O)C[C@@H](c3c(Cl)cccc3Cl)CC2=O)c1)c1ccccc1 [Compound W31] | – | pIC50 [3]: 8.22 |

Continued, in another order:

| pIC50 [2] | SMILES | further results |
| --- | --- | --- |
| < 4.00 | O=c1[nH]c2ccccc2cc1COc1ccc(Nc2nccc(-c3ccc(Cl)cc3)n2)cc1 [Compound 15, 3-((4-((4-(4-Chlorophenyl)pyrimidin-2-yl)amino)phenoxy)methyl)quinolin-2(1H)-one] | solubility (in words) [1]: highly insoluble; also recorded: problems related with solubility |
| 4.57 | O=c1[nH]c2ccccc2cc1CSc1ccccc1Nc1nccc(-c2ccc(C(F)(F)F)cc2)n1 [Compound 25a, 3-(((2-((4-(4-(Trifluoromethyl)phenyl)pyrimidin-2-yl)amino)phenyl)thio)methyl)quinolin-2(1H)-one] | – |
| 4.37 | O=c1[nH]c2ccc(Cl)cc2cc1CSc1ccccc1Nc1nccc(-c2ccc(C(F)(F)F)cc2)n1 [Compound 25b, 6-Chloro-3-(((2-((4-(4-(trifluoromethyl)phenyl)pyrimidin-2-yl)amino)phenyl)thio)methyl)quinolin-2(1H)-one] | – |
| 4.14 | COc1ccc2[nH]c(=O)c(CSc3ccccc3Nc3nccc(-c4ccc(C(F)(F)F)cc4)n3)cc2c1 [Compound 25c, 6-Methoxy-3-(((2-((4-(4-(trifluoromethyl)phenyl)pyrimidin-2-yl)amino)phenyl)thio)methyl)quinolin-2(1H)-one] | – |
| < 4.00 | O=c1[nH]c2ccccc2cc1CSc1ccc(Nc2nccc(-c3ccc(Cl)cc3)n2)cc1 [Compound 28a, 3-(((4-((4-(4-Chlorophenyl)pyrimidin-2-yl)amino)phenyl)thio)methyl)quinolin-2(1H)-one] | – |
| < 4.00 | O=c1[nH]c2ccc(Cl)cc2cc1CSc1ccc(Nc2nccc(-c3ccc(Cl)cc3)n2)cc1 [Compound 28b, 6-Chloro-3-(((4-((4-(4-chlorophenyl)pyrimidin-2-yl)amino)phenyl)thio)meth-yl)quinolin-2(1H)-one] | – |
| < 4.00 | COc1ccc2[nH]c(=O)c(CSc3ccc(Nc4nccc(-c5ccc(Cl)cc5)n4)cc3)cc2c1 [Compound 28c, 3-(((4-((4-(4-Chlorophenyl)pyrimidin-2-yl)amino)phenyl)thio)methyl)-6-methoxyquinolin-2(1H)-one] | – |
| < 4.00 | O=c1[nH]c2ccccc2cc1CSc1ccc(Nc2nccc(-c3ccc(C(F)(F)F)cc3)n2)cc1 [Compound 29a, 3-(((4-((4-(4-(Trifluoromethyl)phenyl)pyrimidin-2-yl)amino)phenyl)thio)methyl)quinolin-2(1H)-one] | – |
| 4.08 | O=c1[nH]c2ccc(Cl)cc2cc1CSc1ccc(Nc2nccc(-c3ccc(C(F)(F)F)cc3)n2)cc1 [Compound 29b, 6-Chloro-3-(((4-((4-(4-(trifluoromethyl)phenyl)pyrimidin-2-yl)amino)phenyl)thio)methyl)quinolin-2(1H)-one] | – |
| < 4.00 | COc1ccc2[nH]c(=O)c(CSc3ccc(Nc4nccc(-c5ccc(C(F)(F)F)cc5)n4)cc3)cc2c1 [Compound 29c, 6-Methoxy-3-(((4-((4-(4-(trifluoromethyl)phenyl)pyrimidin-2-yl)amino)phenyl)thio)methyl)quinolin-2(1H)-one] | – |
| 4.20 | O=c1[nH]c2ccccc2cc1CSc1ccc(Nc2nccc(-c3ccc4ccccc4c3)n2)cc1 [Compound 30a, 3-(((4-((4-(Naphthalen-2-yl)pyrimidin-2-yl)amino)phenyl)thio)methyl)quinolin-2(1H)-one] | – |
| < 4.00 | O=c1[nH]c2ccc(Cl)cc2cc1CSc1ccc(Nc2nccc(-c3ccc4ccccc4c3)n2)cc1 [Compound 30b, 6-Chloro-3-(((4-((4-(naphthalen-2-yl)pyrimidin-2-yl)amino)phenyl)thio)methyl)quinolin-2(1H)-one] | – |
| < 4.00 | COc1ccc2[nH]c(=O)c(CSc3ccc(Nc4nccc(-c5ccc6ccccc6c5)n4)cc3)cc2c1 [Compound 30c, 6-Methoxy-3-(((4-((4-(naphthalen-2-yl)pyrimidin-2-yl)amino)phenyl)thio)methyl)quinolin-2(1H)-one] | – |
| < 4.00 | O=c1[nH]c2ccccc2cc1CSc1ccc(Nc2nccc(-c3ccc4c(c3)OCO4)n2)cc1 [Compound 31a, 3-(((4-((4-(Benzo[d][1,3]dioxol-5-yl)pyrimidin-2-yl)amino)phenyl)thio)methyl)quinolin-2(1H)-one] | inhibitory activity against hLDHA (in words) [2]: inactive |
